Assay results: article PMC12040169 (PLOS Biology, 2025)

Experiment: in vitro
Settings: human, hela cells, % viability

| Structure (SMILES) | viability at 28.5 h, 10 µM |
| --- | --- |
| Cc1cc([N+](=O)[O-])ccc1-c1ccc(C(=O)Nc2ccc(O)c(-c3nc4ccccc4s3)c2)o1 [CBK263421] | 93% |
| O=C(Nc1ccc(-c2nc3ccccc3o2)c(O)c1)c1ccc(-c2cccc(Cl)c2)o1 [CBK263422] | 95.4% |
| CCOC(=O)c1ccc(-c2ccc(C(=O)Nc3ccc(-c4nc5ccccc5o4)c(O)c3)o2)cc1 [CBK263428] | 99% |
| O=C(COc1ccc(I)cc1)Nc1cccnc1 [CBK263430] | 98.9% |
| O=C(O)c1ccc(Cl)c(-c2ccc(/C=N\Nc3ccc([N+](=O)[O-])cn3)o2)c1 [CBK263431] | 93.9% |
| Cc1ccc(Br)cc1S(=O)(=O)N1CCN(C(c2ccccc2)c2ccccc2)CC1 [CBK263433] | 95.3% |
| O=C(/C=C/c1ccc(-c2ccccc2[N+](=O)[O-])o1)Nc1ccc(-c2nc3ncccc3o2)cc1 [CBK263434] | 99.2% |
| Cc1ccc2oc(-c3cccc(NC(=O)c4ccc(-c5ccc([N+](=O)[O-])cc5)o4)c3C)nc2c1 [CBK263437] | 103% |
| O=C(Nc1ccc(O)c(-c2nc3ccccc3o2)c1)c1ccc(-c2ccc([N+](=O)[O-])cc2)o1 [CBK263439] | 96.4% |
| O=C(O)C12CC3CC(C(=O)O)(C1)CC(C(=O)O)(C3)C2 [CBK263442] | 84.4% |
| O=C(CC1(C(F)(F)F)NCCN1)c1cccc([N+](=O)[O-])c1 [CBK263443] | 83.1% |
| Nc1nc(SCCc2ccccc2)nc2sc3c(c12)CCCC3 [CBK263445] | 94.9% |
| CC(=O)c1ccc(OC(C)C)c(CSc2nc(O)cc(O)n2)c1 [CBK263446] | 91.5% |
| CCOc1cc(C=O)ccc1OCc1c(C)no[n+]1[O-] [CBK263449] | 92.1% |
| O=C(Cc1ccccc1)N1CCN(CCCc2ccccc2)CC1 [CBK263451G] | 96.8% |
| Cc1ccc(S(=O)(=O)N2CCN(CCCc3ccccc3)CC2)cc1 [CBK263453] | 95.2% |
| O=C(CN1C(=O)c2ccc([N+](=O)[O-])cc2C1=O)Nc1ccc(O)cc1C(=O)O [CBK263456] | 95.5% |
| c1ccc(CCCN2CCN(C3CCN(Cc4ccccc4)CC3)CC2)cc1 [CBK263457] | 84.8% |
| CCn1c(C(O)c2ccc(OCc3ccccc3)cc2)nc2ccccc21 (stereo not shown) [CBK263458] | 96.1% |
| COc1ccc(OCC(=O)N2CCN(C3CCC(c4ccccc4)CC3)CC2)cc1 (stereo not shown) [CBK263459] | 97.7% |
| CC1=NN(c2ccc(S(N)(=O)=O)cc2)C(=O)/C1=C\c1ccc(-c2cc([N+](=O)[O-])ccc2C)o1 [CBK263460] | 106% |

| Structure (SMILES) | viability at 28.5 h, 10 µM |
| --- | --- |
| c1ccc(CCCN2CCN(Cc3ccccn3)CC2)cc1 [CBK263461G] | 91.6% |
| COc1cc(CN2CCN(C(=O)c3ccccc3)CC2)cc(OC)c1O [CBK263462] | 94.3% |
| Cc1ccc(S(=O)(=O)Oc2c(C=C3C(=O)CC(C)(C)CC3=O)[nH]c3ccccc23)cc1 [CBK263464] | 94.4% |
| C1=CCC(CN2CCN(C3CCN(Cc4ccccc4)CC3)CC2)CC1 (stereo not shown) [CBK263469] | 91.6% |
| Nc1nnc(CSCc2ccc(Cl)cc2Cl)s1 [CBK263471] | 100% |
| CC1=NN(c2ccc(S(N)(=O)=O)cc2)C(=O)/C1=C\c1ccc(-c2ccc(S(N)(=O)=O)cc2)o1 [CBK263476] | 97.4% |
| O=C(O)CCC(=O)Nc1ccc(NC(=O)c2ccccc2)c(Cl)c1 [CBK263478] | 86.8% |
| COc1ccc(CN2CCN(C(=O)c3ccccc3F)CC2)cc1OCc1ccccc1 [CBK263479] | 80.7% |
| CCN(CC)CCCN1C(=O)CSC1c1ccc2c(c1)OCO2 (stereo not shown) [CBK263482C] | 102% |
| CS(=O)(=O)N1CCN(C2CCN(Cc3ccccc3)CC2)CC1 [CBK263485] | 95.9% |
| O=[N+]([O-])c1cc(Br)cc(/C=N/Nc2nc3ccccc3[nH]2)c1O [CBK263486] | 89.1% |
| O=C(CSc1n[nH]c(=O)[nH]c1=O)N/N=C/c1ccc(O)cc1 [CBK263488] | 95.4% |
| NNC(=O)Cn1c(-c2ccccn2)nc2ccccc21 [CBK263489] | 108% |
| COc1ccc(C2=NN(CN3C(=O)C(=O)c4cc(Br)ccc43)C(c3cccc([N+](=O)[O-])c3)C2)cc1 (stereo not shown) [CBK263490] | 119% |
| CCC(=O)Nc1nc2ccccc2n1CCCN(C)C [CBK263492] | 102% |
| Cc1cccc(C(=O)NCCc2nc3ccccc3[nH]2)c1 [CBK263493] | 100% |
| CCC(=O)NNC(=O)c1cc(O)nc2ccccc12 [CBK263495] | 98.1% |
| COc1ccc(OC)c(NC(=O)COc2ccc(C(C)C)cc2)c1 [CBK263498] | 114% |
| NS(=O)(=O)c1ccc(CCNC2CC(=O)N(CCc3ccccc3)C2=O)cc1 (stereo not shown) [CBK263502] | 93.4% |
| Cc1c(C)[n+]([O-])c2cc(N3CCN(C)CC3)c(Cl)cc2[n+]1[O-] [CBK263503] | 96.3% |
| CN1C(=O)/C(=C2\SC(=S)N(C(Cc3ccccc3)C(=O)O)C2=O)c2ccccc21 (stereo not shown) [CBK263507] | 99.6% |

| Structure (SMILES) | viability at 28.5 h, 10 µM |
| --- | --- |
| O=C(CSc1n[nH]c(=O)[nH]c1=O)N/N=C/c1cccs1 [CBK263508] | 98.9% |
| CC(=O)Nc1ccc(/C(C)=N\NC(=O)CCN2CCCCC2)cc1 [CBK263509] | 95.9% |
| Cc1ccc(OCC(=O)NNC(=O)C2COc3ccccc3O2)cc1 (stereo not shown) [CBK263511] | 95.4% |
| O=C(Nc1ccccc1C(=O)N1CCN(Cc2ccccc2)CC1)c1ccccn1 [CBK263512] | 106% |
| COc1cc(/C=N/NC(=O)CSc2n[nH]c(=O)[nH]c2=O)ccc1O [CBK263513] | 88.7% |
| O=C(NCCc1nc2ccccc2[nH]1)c1cccc(Cl)c1 [CBK263514] | 100% |
| CCN1C(=O)/C(=C\NN=C2CCCC2)c2ccc(C3=NNC(=O)CC3)cc21 [CBK263515] | 88.1% |
| CCN(CC)CCNC1=Nc2ccccc2CCC1 [CBK263520] | 94.7% |
| O=C1Nc2ccc(Br)cc2/C1=C1/SC(=S)N(C(Cc2ccccc2)C(=O)O)C1=O (stereo not shown) [CBK263521] | 95.6% |
| CC(Nc1n[nH]c(=O)[nH]c1=O)C(=O)N/N=C/c1ccccc1O (stereo not shown) [CBK263526] | 91.7% |
| COc1cc(/C=N/NC(=O)CSc2n[nH]c(=O)[nH]c2=O)cc(OC)c1O [CBK263527] | 92.9% |
| O=C(O)c1cc(NC(=O)c2cccc(Oc3ccc([N+](=O)[O-])cc3)c2)cc(C(=O)O)c1 [CBK263528] | 80.8% |
| O=C(CNc1n[nH]c(=O)[nH]c1=O)N/N=C/c1ccc(C(=O)O)cc1 [CBK263529] | 96.2% |
| O=C(O)CCCC(=O)NNC(=O)c1cccc(Br)c1 [CBK263530] | 99.9% |
| CC1=C(C)CC(C(=O)Nc2ccc3c(c2)oc2ccccc23)C(C(=O)O)C1 (stereo not shown) [CBK263533] | 102% |
| CC(=O)Nc1ccc(NC(=O)C2C3CCC(C3)C2C(=O)O)cc1 (stereo not shown) [CBK263534] | 93.9% |
| S=C1NCN(Cc2ccccc2)CN1c1ccccc1 [CBK263536] | 91.3% |
| O=C(NCCNc1ccc(Cl)cc1[N+](=O)[O-])c1ccccc1Br [CBK263538] | 102% |
| Cc1cc(C)nc(Nc2nc3ccccc3[nH]2)n1 [CBK263539] | 102% |
| Cc1ccc(C(=O)Nc2ccccc2C(=O)NC(C)C(=O)O)cc1 (stereo not shown) [CBK263540] | 93.9% |
| COCc1cc(CN2CCN(C)CC2)c(O)c2ncccc12 [CBK263546] | 85.1% |

| Structure (SMILES) | viability at 28.5 h, 10 µM |
| --- | --- |
| Cc1ccc(OCC(=O)Nc2sc3c(c2C#N)CCCC3)cc1 [CBK263548] | 109% |
| CSc1nc2ccc(NC(=O)CSc3nnnn3-c3ccccc3)cc2s1 [CBK263549] | 88.3% |
| Oc1ccc(Nc2nc3nonc3nc2Nc2ccccc2)cc1 [CBK263551] | 94% |
| O=C(CSc1ccccn1)Nc1ccccc1-c1ccccc1 [CBK263553] | 90.6% |
| COc1ccccc1C(=O)O/N=C1/CCCc2c1ccc(OC)c2[N+](=O)[O-] [CBK263555] | 102% |
| CCCc1c(C)nc2ccccc2c1SCC(=O)O [CBK263558] | 93.7% |
| Cc1ccc(C(=O)Nc2ccccc2C(=O)N2CCN(Cc3ccccc3)CC2)cc1 [CBK263560] | 94% |
| CCOc1cccc(N2C(=O)CC(N3CCC(C(N)=O)(N4CCCCC4)CC3)C2=O)c1 (stereo not shown) [CBK263562] | 99% |
| Cc1ccc(SCCNS(=O)(=O)c2ccc(C)cc2)cc1 [CBK263564] | 108% |
| Cc1ccc(S(=O)(=O)NCCSc2ccccn2)cc1[N+](=O)[O-] [CBK263566] | 82.5% |
| Cc1ccc(S(=O)(=O)N(CC(O)CN2CCCCC2)c2ccccc2)cc1 (stereo not shown) [CBK263570] | 97.7% |
| Cc1ccc(S(=O)(=O)N(CC(O)CN2C(=O)NC(C)(C)C2=O)c2ccccc2[N+](=O)[O-])cc1 (stereo not shown) [CBK263572] | 95.3% |
| COc1cc(NC(=O)c2nn3c(c2Br)NC(c2cccs2)CC3C(F)(F)F)c(OC)cc1Cl (stereo not shown) [CBK263573] | 93.1% |
| c1ccc(CN(Cc2ccccc2)Cn2c3ccccc3c3ccccc32)cc1 [CBK263575] | 93.6% |
| CC(=O)Nc1ccc(S(=O)(=O)NCCSc2ccccn2)cc1 [CBK263576] | 90.1% |
| O=[N+]([O-])c1cc(C(F)(F)F)ccc1NCCNC(=S)Nc1ccc(Cl)cc1 [CBK263578] | 92.9% |
| Cc1ccc(N(CC(O)CN2C(=O)NC(C)(C)C2=O)S(=O)(=O)c2ccccc2)cc1 (stereo not shown) [CBK263580] | 99.2% |
| COc1ccccc1N(CC(O)CN1C(=O)NC(C)(C)C1=O)S(=O)(=O)c1ccc(C)cc1 (stereo not shown) [CBK263581] | 99.4% |
| Oc1ccc2ccccc2c1Cc1c(O)ccc2ccccc12 [CBK263583] | 72.9% |

Same assay, conditions: human, hela cells, % viability, bulk resorufin, single well

| Structure (SMILES) | viability at 28.5 h, 10 µM |
| --- | --- |
| CCOc1cc(C=C2C(=O)NC(=S)NC2=O)ccc1OCc1c(C)no[n+]1[O-] [CBK263468] | 99.3% |
| O=P(Nc1ccc(Cl)c(Cl)c1)(Nc1ccc(Cl)c(Cl)c1)Oc1ccc(Cl)cc1 [CBK263487] | 93.2% |
| O=C(Cn1cc(/C=C2/C(=O)NC(=S)N(c3ccc(Cl)cc3)C2=O)c2ccccc21)Nc1ccccc1 [CBK263535] | 98.4% |
